Patent US12281363B2, “Methods for detecting antiviral-drug resistant virus” (Secretary of State for Health and Social Care, priority 2018, dated 2025)
Read-outs that look alike come from different tables or passages of the source.

Tested on: HSV-1
Test: Plaque reduction assay, HSV-1 clinical isolates on Vero cells
Assay type: cell-based
Conditions: Human alphaherpesvirus 1, Vero
Text: Viral isolates were used to infect a sub-confluent monolayer of Vero cells at a concentration of 75 or 50 plaque forming units (PFU) per well for HSV-1 and HSV-2, respectively. […] CMC medium typically used to create a semisolid interface and prevents indiscrimate viral spreading. Other materials (e.g. agar) may also be used to create this interface.
Cells were fixed with 10% formalin and stained with crystal violet before enumeration of the plaques (microscopic observation or use of fluorescent antibodies for detection is also suitable). The data obtained from these experiments were then expressed as percent inhibition of viral infectivity relative to the no drug control.
Definitions of phenotypic drug susceptibility classification as sensitive or resistant were as follows: ACV, <3 μM or >40 μM; PCV, <10 μM or >40 μM; CDV, <24 μM or >30 μM; FOS, <250 μM or >400 μM; and ACV, <6.5 μM or >40 μM; PCV, <38 μM or >40 μM; FOS, <250 μM or >400 μM for HSV-1 and HSV-2, respectively. Any IC50 values falling in between these sensitive and resistant cut-offs were reported as intermediate resistance.
The phenotype (i.e. reactivity to a drug) of the virus was characterised by the plaque reduction assay as described above.

Structure (SMILES): O=C(O)P(=O)(O)O [Foscarnet, foscarnet]
- IC50 (isolate HPG033, HSV-1 TK I358L (1072A>C), also TK T287M, read-out: Drug susceptibility (IC50 value)): 88.3 µM
- IC50 (isolate HPG033, HSV-1 TK I358L (1072A>C), also TK T287M, read-out: Drug susceptibility Foscarnet (FOS)): < 250 µM
- IC50 (isolate HPG033, HSV-1 pol N1046T (3137A>C), also TK T287M, pol A1169T, read-out: Drug susceptibility (IC50 value)): 88.3 µM
- IC50 (isolate HPG033, HSV-1 pol N1046T (3137A>C), also TK T287M, pol A1169T, read-out: Drug susceptibility Foscarnet (FOS)): < 250 µM
- IC50 (isolate HPG035, HSV-1 pol S239L (716C>T), also pol S724N, read-out: Drug susceptibility (IC50 value)): 701 µM
- IC50 (isolate HPG035, HSV-1 pol S239L (716C>T), also pol S724N, read-out: Drug susceptibility Foscarnet (FOS)): > 400 µM
- IC50 (isolate HPG037, HSV-1 TK L69M (205>A), also TK Y239H, read-out: Drug susceptibility Foscarnet (FOS)): < 250 µM
- IC50 (isolate HPG037, HSV-1 TK R256W (766C>T), read-out: Drug susceptibility (IC50 value)): 80 µM
- IC50 (isolate HPG037, HSV-1 TK R256W (766C>T), read-out: Drug susceptibility Foscarnet (FOS)): < 250 µM
- IC50 (isolate HPG037, HSV-1 TK Y239H (715T>C), read-out: Drug susceptibility (IC50 value)): 80 µM
- IC50 (isolate HPG037, HSV-1 TK Y239H (715T>C), read-out: Drug susceptibility Foscarnet (FOS)): < 250 µM
- IC50 (isolate HPG039, HSV-1 TK 85* or H58fs (169delC, 170delC, 171delC, or 172delC), read-out: Drug susceptibility (IC50 value)): 59.8 µM
- IC50 (isolate HPG039, HSV-1 TK 85* or H58fs (169delC, 170delC, 171delC, or 172delC), read-out: Drug susceptibility Foscarnet (FOS)): < 250 µM
- IC50 (isolate HPG040, HSV-1 pol S911N (2732G>A), also TK deletion (C) nt 896-900, pol A1169T, read-out: Drug susceptibility (IC50 value)): 137 µM
- IC50 (isolate HPG040, HSV-1 pol S911N (2732G>A), also TK deletion (C) nt 896-900, pol A1169T, read-out: Drug susceptibility Foscarnet (FOS)): < 250 µM
- IC50 (isolate HPG041, HSV-1 pol S911N (2732G>A), also pol A1169T, read-out: Drug susceptibility (IC50 value)): 89.5 µM
- IC50 (isolate HPG041, HSV-1 pol S911N (2732G>A), also pol A1169T, read-out: Drug susceptibility Foscarnet (FOS)): < 250 µM
- IC50 (isolate HPG042, HSV-1 pol A972V (2915C>T), also TK deletion (C) nt 881-885, pol A1169T, read-out: Drug susceptibility (IC50 value)): 60.7 µM
- IC50 (isolate HPG042, HSV-1 pol A972V (2915C>T), also TK deletion (C) nt 881-885, pol A1169T, read-out: Drug susceptibility Foscarnet (FOS)): < 250 µM
- IC50 (isolate HPG042, HSV-1 pol G22R (64G>A), also TK deletion (C) nt 881-885, pol A1169T, read-out: Drug susceptibility (IC50 value)): 60.7 µM
- IC50 (isolate HPG042, HSV-1 pol G22R (64G>A), also TK deletion (C) nt 881-885, pol A1169T, read-out: Drug susceptibility Foscarnet (FOS)): < 250 µM
- IC50 (isolate HPG043, HSV-1 TK 183* (437_438insA), read-out: Drug susceptibility (IC50 value)): 69 µM
- IC50 (isolate HPG043, HSV-1 TK 183* (437_438insA), read-out: Drug susceptibility Foscarnet (FOS)): < 250 µM
- IC50 (isolate HPG045, HSV-1 TK L49R (146T>G), read-out: Drug susceptibility (IC50 value)): 75 µM
- IC50 (isolate HPG045, HSV-1 TK L49R (146T>G), read-out: Drug susceptibility Foscarnet (FOS)): < 250 µM
- IC50 (isolate HPG045, HSV-1 pol L419I (1255C>A), also TK L49R, pol A1169T, read-out: Drug susceptibility (IC50 value)): 75 µM
- IC50 (isolate HPG045, HSV-1 pol L419I (1255C>A), also TK L49R, pol A1169T, read-out: Drug susceptibility Foscarnet (FOS)): < 250 µM
- IC50 (isolate HPG046, HSV-1 TK I166N (497T>A), read-out: Drug susceptibility (IC50 value)): < 50 µM
- IC50 (isolate HPG046, HSV-1 TK I166N (497T>A), read-out: Drug susceptibility Foscarnet (FOS)): < 250 µM
- IC50 (isolate HPG047, HSV-1 pol E680 (2039A>C), also TK deletion (C) nt 548-553, pol A1169T, read-out: Drug susceptibility Foscarnet (FOS)): < 250 µM
- IC50 (isolate HPG050, HSV-1 TK Q34* (100C>T), read-out: Drug susceptibility (IC50 value)): 169 µM
- IC50 (isolate HPG050, HSV-1 TK Q34* (100C>T), read-out: Drug susceptibility Foscarnet (FOS)): < 250 µM
- IC50 (isolate HPG051, HSV-1 pol D83A (248A>C), also TK R176stop, read-out: Drug susceptibility (IC50 value)): 82.6 µM
- IC50 (isolate HPG051, HSV-1 pol D83A (248A>C), also TK R176stop, read-out: Drug susceptibility Foscarnet (FOS)): < 250 µM
- IC50 (isolate HPG052, HSV-1 TK Q34* (100C>T), read-out: Drug susceptibility (IC50 value)): 76.9 µM
- IC50 (isolate HPG052, HSV-1 TK Q34* (100C>T), read-out: Drug susceptibility Foscarnet (FOS)): < 250 µM
- IC50 (isolate HPG053, HSV-1 pol L802R + A834S (2405T>G, 2500G>T), also TK R176W, read-out: Drug susceptibility Foscarnet (FOS)): > 400 µM
- IC50 (isolate HPG053, HSV-1 pol S911N (2732G>A), also TK R176W, pol A1169T, read-out: Drug susceptibility (IC50 value)): 626 µM
- IC50 (isolate HPG053, HSV-1 pol S911N (2732G>A), also TK R176W, pol A1169T, read-out: Drug susceptibility Foscarnet (FOS)): > 400 µM
- IC50 (isolate HPG054, HSV-1 pol E992K (2974G>A), also TK insert (G) nt 430-436, pol A1169T, read-out: Drug susceptibility (IC50 value)): 52.9 µM
- IC50 (isolate HPG054, HSV-1 pol E992K (2974G>A), also TK insert (G) nt 430-436, pol A1169T, read-out: Drug susceptibility Foscarnet (FOS)): < 250 µM
- IC50 (isolate HPG055, HSV-1 TK V204G (611T>G), also pol A1169AT, read-out: Drug susceptibility (IC50 value)): < 50 µM
- IC50 (isolate HPG055, HSV-1 TK V204G (611T>G), also pol A1169AT, read-out: Drug susceptibility Foscarnet (FOS)): < 250 µM
- IC50 (read-out: Drug susceptibility (IC50 value), isolate HPG005, HSV-1 TK A192T (574G>A)): < 50 µM
- IC50 (read-out: Drug susceptibility (IC50 value), isolate HPG006, HSV-1 pol G121S (361G>A), also a TK resistance mutation (footnote a)): 115 µM
- IC50 (read-out: Drug susceptibility (IC50 value), isolate HPG012, HSV-1 pol G985E (2954G>A), also TK A93V): 92.1 µM
- IC50 (read-out: Drug susceptibility (IC50 value), isolate HPG016, HSV-1 pol A1169T (3505G>A)): 154 µM
- IC50 (read-out: Drug susceptibility (IC50 value), isolate HPG037, HSV-1 TK L69M (205>A), also TK Y239H): 80 µM
- IC50 (read-out: Drug susceptibility (IC50 value), isolate HPG042, HSV-1 TK frameshift (881delC to 885delC)): 60.7 µM
- IC50 (read-out: Drug susceptibility (IC50 value), isolate HPG047, HSV-1 pol E680 (2039A>C), also TK deletion (C) nt 548-553, pol A1169T): 92.4 µM
- IC50 (read-out: Drug susceptibility Foscarnet (FOS), isolate HPG005, HSV-1 TK A192T (574G>A)): < 250 µM
- IC50 (read-out: Drug susceptibility Foscarnet (FOS), isolate HPG006, HSV-1 pol G121S (361G>A), also a TK resistance mutation (footnote a)): < 250 µM
- IC50 (read-out: Drug susceptibility Foscarnet (FOS), isolate HPG012, HSV-1 pol G985E (2954G>A), also TK A93V): < 250 µM
- IC50 (read-out: Drug susceptibility Foscarnet (FOS), isolate HPG016, HSV-1 pol A1169T (3505G>A)): < 250 µM
- IC50 (read-out: Drug susceptibility Foscarnet (FOS), isolate HPG042, HSV-1 TK frameshift (881delC to 885delC)): < 250 µM
